Results: the NIST ThermoML archive (doi:10.1016/j.jct.2013.06.020)
± gives the expanded uncertainty stated by the source.

Experiment: mn = molality of the nth substance listed, in mol/kg
Conditions: 298.15 K, 101 kPa, Liquid; for speed of sound: Sing-around technique in a fixed-path interferometer; for mass density: Vibrating tube method

CCOC(=O)C(C)O (stereo not drawn) [DL-ethyl lactate] + O
Conditions	mass density [kg/m3]	speed of sound [m/s]
m1 = 0.0348	997.552 ± 0.11	1498.7 ± 1.2
m1 = 0.0378	997.579 ± 0.11	1499 ± 1.2
m1 = 0.0445	997.674 ± 0.11	1499.6 ± 1.2
m1 = 0.0513	997.748 ± 0.11	1500 ± 1.2
m1 = 0.063	997.869 ± 0.11	1500.5 ± 1.2
m1 = 0.0719	997.967 ± 0.11	1501.1 ± 1.2
m1 = 0.0895	998.152 ± 0.11	1502.2 ± 1.2
m1 = 0.1026	998.294 ± 0.11	1503 ± 1.2
m1 = 0.1207	998.489 ± 0.11	1504 ± 1.2
m1 = 0.1439	998.732 ± 0.11	1505.6 ± 1.2
m1 = 0.1856	999.184 ± 0.11	1508.6 ± 1.2
m1 = 0.2723	1000.1 ± 0.11	1514 ± 1.2
m1 = 0.5249	1002.7 ± 0.11	1526 ± 1.2
m1 = 0.6911	1004.35 ± 0.11	1533.5 ± 1.2
m1 = 0.8467	1005.83 ± 0.11	1539.6 ± 1.2
m1 = 1.02	1007.41 ± 0.11	1545.3 ± 1.3
m1 = 1.188	1008.87 ± 0.12	1551.3 ± 1.3
m1 = 1.359	1010.23 ± 0.12	1556.1 ± 1.3
m1 = 1.683	1012.78 ± 0.12	1563.9 ± 1.3
m1 = 2.058	1015.37 ± 0.13	1572.5 ± 1.3
m1 = 2.41	1017.49 ± 0.13	1579 ± 1.3
m1 = 2.725	1019.27 ± 0.14	1585.2 ± 1.4
m1 = 3.226	1021.64 ± 0.15	1593.3 ± 1.4
m1 = 3.731	1023.63 ± 0.16	1601.1 ± 1.4
m1 = 4.237	1025.37 ± 0.17	1607.5 ± 1.4

CCCCOC(=O)C(C)O (stereo unspecified) [butyl 2-hydroxypropanoate] + O
Conditions	mass density [kg/m3]	speed of sound [m/s]
m1 = 0.0219	997.335 ± 0.11	1498.8 ± 1.2
m1 = 0.0262	997.377 ± 0.11	1499.4 ± 1.2
m1 = 0.0328	997.422 ± 0.11	1499.9 ± 1.2
m1 = 0.0399	997.472 ± 0.11	1500.3 ± 1.2
m1 = 0.0413	997.482 ± 0.11	1500.5 ± 1.2
m1 = 0.0444	997.503 ± 0.11	1500.8 ± 1.2
m1 = 0.0632	997.633 ± 0.11	1502.3 ± 1.2
m1 = 0.0659	997.652 ± 0.11	1502.6 ± 1.2
m1 = 0.0775	997.733 ± 0.11	1503.7 ± 1.2
m1 = 0.0915	997.826 ± 0.11	1504.9 ± 1.2
m1 = 0.1058	997.928 ± 0.11	1506.1 ± 1.2
m1 = 0.1167	998.001 ± 0.11	1507 ± 1.2
m1 = 0.1331	998.116 ± 0.11	1508.4 ± 1.2
m1 = 0.1551	998.265 ± 0.11	1510.2 ± 1.2
m1 = 0.1798	998.437 ± 0.11	1512.2 ± 1.2
m1 = 0.1979	998.576 ± 0.11	1514 ± 1.2
m1 = 0.2171	998.689 ± 0.11	1515.5 ± 1.2
m1 = 0.235	998.813 ± 0.11	1516.7 ± 1.2
m1 = 0.2647	999.004 ± 0.11	1518.4 ± 1.2
m1 = 0.2785	999.098 ± 0.11	1519.4 ± 1.2

CCCCOC(=O)CCC(C)=O [butyl levulinate] + O
Conditions	mass density [kg/m3]	speed of sound [m/s]
m1 = 0.0029	997.066 ± 0.11	1497.3 ± 1.2
m1 = 0.0037	997.071 ± 0.11	1497.5 ± 1.2
m1 = 0.005	997.078 ± 0.11	1497.6 ± 1.2
m1 = 0.0055	997.08 ± 0.11	1497.6 ± 1.2
m1 = 0.0059	997.081 ± 0.11	1497.7 ± 1.2
m1 = 0.0074	997.088 ± 0.11	1497.9 ± 1.2
m1 = 0.0083	997.093 ± 0.11	1497.9 ± 1.2
m1 = 0.0088	997.096 ± 0.11	1497.9 ± 1.2
m1 = 0.011	997.107 ± 0.11	1498.2 ± 1.2
m1 = 0.0128	997.114 ± 0.11	1498.4 ± 1.2
m1 = 0.0135	997.123 ± 0.11	1498.5 ± 1.2
m1 = 0.0142	997.124 ± 0.11	1498.5 ± 1.2
m1 = 0.0208	997.158 ± 0.11	1499.1 ± 1.2
m1 = 0.0219	997.163 ± 0.11	1499.4 ± 1.2
m1 = 0.0257	997.183 ± 0.11	1499.7 ± 1.2
m1 = 0.0303	997.197 ± 0.11	1500 ± 1.2
m1 = 0.0312	997.209 ± 0.11	1500.1 ± 1.2
m1 = 0.0357	997.23 ± 0.11	1500.6 ± 1.2
m1 = 0.0466	997.273 ± 0.11	1501.4 ± 1.2
m1 = 0.0522	997.303 ± 0.11	1501.8 ± 1.2
m1 = 0.0625	997.333 ± 0.11	1502.5 ± 1.2

CCOC(=O)CCC(C)=O [ethyl levulinate] + O
Conditions	mass density [kg/m3]	speed of sound [m/s]
m1 = 0.0358	997.518 ± 0.11	1499.2 ± 1.2
m1 = 0.0404	997.561 ± 0.11	1499.6 ± 1.2
m1 = 0.0431	997.587 ± 0.11	1499.8 ± 1.2
m1 = 0.0492	997.643 ± 0.11	1500.2 ± 1.2
m1 = 0.0555	997.699 ± 0.11	1500.7 ± 1.2
m1 = 0.0696	997.825 ± 0.11	1501.6 ± 1.2
m1 = 0.0752	997.876 ± 0.11	1502 ± 1.2
m1 = 0.0921	998.027 ± 0.11	1503.1 ± 1.2
m1 = 0.1048	998.143 ± 0.11	1504 ± 1.2
m1 = 0.148	998.527 ± 0.11	1507.1 ± 1.2
m1 = 0.2329	999.277 ± 0.11	1512.1 ± 1.2
m1 = 0.2893	999.76 ± 0.11	1515.5 ± 1.2
m1 = 0.3426	1000.21 ± 0.11	1518.5 ± 1.2
m1 = 0.4292	1000.93 ± 0.11	1523.1 ± 1.2
m1 = 0.4826	1001.36 ± 0.11	1525.7 ± 1.2
m1 = 0.5834	1002.14 ± 0.11	1530.3 ± 1.2
m1 = 0.7128	1003.11 ± 0.11	1535.5 ± 1.2
m1 = 0.8299	1003.94 ± 0.11	1539.5 ± 1.2
m1 = 1.037	1005.27 ± 0.11	1545 ± 1.2

COC(=O)C(C)O (stereo unspecified) [methyl 2-hydroxypropanoate] + O
Conditions	mass density [kg/m3]	speed of sound [m/s]
m1 = 0.0487	997.862 ± 0.11	1499 ± 1.2
m1 = 0.0568	997.968 ± 0.11	1499.5 ± 1.2
m1 = 0.0707	998.157 ± 0.11	1500.4 ± 1.2
m1 = 0.0956	998.501 ± 0.11	1501.2 ± 1.2
m1 = 0.1039	998.614 ± 0.11	1501.6 ± 1.2
m1 = 0.1117	998.722 ± 0.11	1502 ± 1.2
m1 = 0.1338	999.035 ± 0.11	1503.1 ± 1.2
m1 = 0.1539	999.294 ± 0.11	1504 ± 1.2
m1 = 0.223	1000.24 ± 0.11	1507.8 ± 1.2
m1 = 0.3212	1001.55 ± 0.11	1511.7 ± 1.2
m1 = 0.484	1003.64 ± 0.11	1518.2 ± 1.2
m1 = 0.7855	1007.52 ± 0.11	1529 ± 1.2
m1 = 0.9699	1009.78 ± 0.11	1535.3 ± 1.2
m1 = 1.168	1012.12 ± 0.11	1542.1 ± 1.3
m1 = 1.377	1014.5 ± 0.12	1548.7 ± 1.3
m1 = 1.56	1016.48 ± 0.12	1554.2 ± 1.3
m1 = 1.776	1018.7 ± 0.12	1561.9 ± 1.3
m1 = 1.938	1020.4 ± 0.12	1566.9 ± 1.3
m1 = 2.237	1023.27 ± 0.13	1575.8 ± 1.3
m1 = 2.632	1026.82 ± 0.14	1588.2 ± 1.3
m1 = 2.941	1029.45 ± 0.14	1597 ± 1.3
m1 = 3.322	1032.46 ± 0.15	1606.5 ± 1.4
m1 = 3.906	1036.62 ± 0.16	1617.2 ± 1.4
